Assay results reported in patent publication US20210386738A1, “COMBINATION OF PRMT5 INHIBITORS AND BCL-2 INHIBITORS” (GLAXOSMITHKLINE INTELLECTUAL PROPERTY DEVELOPMENT LIMITED, priority 2018, published 2021).

How the values were obtained:
[1] = test system: lymphoma cell line WSU-DLCL2; assay: Standard 6-day growth-death assay, WSU-DLCL2; assay type: cell-based; conditions: single agent or fixed 1:1 combination; for EC50 / IC50: Homo sapiens, WSUDLCL2, 144 h; for EC50: average of n=2, read-out: dEC50; for IC50: average of n=2, read-out: gIC50; for Ymin-T0 / gIC100: average of n=2
Description: (§1) The majority cell lines were obtained from GSK BioCat group, American Type Culture Collection (ATCC), or the Deutsche Sammlung von Mikroorganismen and Zellbulturen (DSMZ). All cell lines were maintained in growth medium in T75 cm^2 flasks, incubated at 37° C. with 5% CO2 and split every 3 to 4 days. Growth media conditions and cell line information are detailed in Table 1. Cells were counted using the Vi-Cell Analyzer (Beckman Coulter ViCell) to obtain viable cell counts.
(§2) Optimal cell seeding density was determined for all cell lines by monitoring proliferation over a range of seeding densities in 384-well format and identifying the seeding density at which cells grew logarithmically throughout six days. 50 uL of cells per well were plated in 384-well plates at the optimal seeding density in preferred supplemented culture media. Three plates were prepared per cell line and incubated overnight at 37° C. in 5% CO2.
(§3) In these studies, lymphoma cell lines were treated with PRMT5 inhibitor, compound A and BCL-2 targeted inhibitor, ABT-199 single agent or in combination using a fixed 1:1 ratio of each inhibitor over a 20-point titration. For compound A single and fixed 1:1 ratio combination with ABT-199 cell proliferation assay, cells were treated in duplicate with a 20-point, two-fold dilution series of Compound A, ABT-199 (≥14 μM top dose) single or combo treatment, and ≤0.15% DMSO final concentration. Plates were incubated for six days at the conditions described above. Cell growth was measured using CellTiter-Glo (Promega) and luminescence signal was detected with a BioTek Synergy Neo microplate reader. A plate of untreated cells was read at the time of compound/biologic addition to determine the T0 value representing the starting number of cells. Data were fit with a four-parameter equation to generate a concentration response curve using Assay Client software.
(§4) Results were background corrected by subtraction of values from wells containing no cells, expressed as a percentage of the T0 value (value at time=0), and plotted against compound concentration. The T0 value was normalized to 100% and represents the number of cells present at the time of compound addition. The cellular response was determined for each compound using a 4- or 6-parameter curve fit of cell viability against concentration using Assay Client software. Growth IC50 (gIC50) values correspond to the concentration intersecting the mid-point of the growth window (between DMSO and T0 values). Growth IC100 (gIC100) values correspond to the concentration at which 100% growth inhibition is achieved, based on the growth window. The Ymin−T0 value, a measure of net population cell growth or death, is calculated by subtracting the T0 value (100%) from the Ymin value (%) that is determined from the fit of the concentration response curve. Death EC50 (dEC50) values correspond to the concentration at which 50% net cell death is observed.
(§5) Individual curves were quality checked for three criteria: outlier data points, cell growth (population doubling ≥1.5), and proper curve fitting. […] Individual curves were QC checked for outlier data points, cell growth (population doubling ≥1.5), and proper curve fitting. Obvious outlier data points were omitted only as needed to ensure proper curve fit.
(§6) For fixed ratio screening, combination activity was assessed by the fold change in gIC50 compared to the 2 single agent curves by dividing the compound ratio as necessary. Combinations showing >3-fold and >5-fold change from single agent are described as below: • Fold changes ≥5 are considered to represent strong synergy. • Fold changes between 3.0 and 4.9 are considered to represent weak synergy. • Fold changes <3 are considered to represent no synergy.

[2] = test system: lymphoma cell line OCI-LY3; assay: Standard 6-day growth-death assay, OCI-LY3; assay type: cell-based; conditions: single agent or fixed 1:1 combination; for EC50 / IC50: Homo sapiens, 144 h; for EC50: average of n=2, read-out: dEC50; for IC50: average of n=2, read-out: gIC50; for Ymin-T0 / gIC100: average of n=2
Description: as §1, §2, §3, §4, §5, §6

Compound: O=C(NC[C@H](O)CN1CCc2ccccc2C1)c1ccnc(NC2CCC2)c1 [Compound A]
- EC50 [1]: > 14.7 µM
- IC50 [1]: 1.17 µM
- Ymin-T0 [1]: 2474%
- gIC100 [1]: > 14.7 µM
- EC50 [2]: > 14.7 µM
- IC50 [2]: 1.96 µM
- Ymin-T0 [2]: 488%
- gIC100 [2]: 14.663 µM

Compound: CC1(C)CCC(CN2CCN(c3ccc(C(=O)NS(=O)(=O)c4ccc(NCC5CCOCC5)c([N+](=O)[O-])c4)c(Oc4cnc5[nH]ccc5c4)c3)CC2)=C(c2ccc(Cl)cc2)C1 [ABT-199, venetoclax, reference compound]
- EC50 [1]: > 14.7 µM
- IC50 [1]: 6.92 µM
- Ymin-T0 [1]: 3182%
- gIC100 [1]: > 14.7 µM
- EC50 [2]: 7.51 µM
- IC50 [2]: 1.47 µM
- Ymin-T0 [2]: −76%
- gIC100 [2]: 7.157 µM
